Measurements from patent publication US8138158B2, “Compositions and methods for therapy for diseases characterized by defective chloride transport” (Children's Hospital & Research Center at Oakland, priority 1997, dated 2012).

Legend:
Type in all cases: cell-based, human
Calu-3 monolayers [1] = experiment: Transepithelial short-circuit current (Isc) across unstimulated Calu-3 monolayers; conditions: for transepithelial chloride currents in unstimulated tissue: compound added to mucosal (or serosal) perfusion, L-ascorbic acid 100 μM
Method: Currents were recorded with a serosal-to-mucosal chloride gradient at 0 mV and pulses were obtained at 2 mV.
Ascorbic acid (100 μM) was added as indicated. For comparison, ascorbic acid-stimulated chloride current was subsequently stimulated by the cAMP elevating agonist forskolin (20 μM, serosal). The CFTR activator genistein (20 mM) was then added to the mucosal perfusion as indicated. […] Currents were recorded with a serosal-to-mucosal chloride gradient at 0 mV and pulses were obtained at 2 mV.
100 μM ascorbic acid and forskolin (fsk, 20 μM, serosal) were added as indicated. The CFTR activator kaempferol (20 μM) was subsequently added, as indicated. […] Currents were recorded with a serosal-to-mucosal chloride gradient at 0 mV and pulses were obtained at 2 mV.
This experiment was performed using unstimulated tissue.
Kinetic analysis is depicted on the right panel and estimated half maximal stimulatory dose was 11.7 μM. […]
For comparison, ascorbic acid-stimulated chloride currents were stimulated by the cAMP elevating agonist forskolin (20 μM, serosal).
Stimulated C1 currents returned to baseline after 5-15 min.

Calu-3 monolayers [2] = experiment: Transepithelial chloride currents in forskolin-prestimulated Calu-3 monolayers; conditions: prestimulated with 10 μM forskolin
Method: FIGS. 13A-13C illustrate the effect of additional representative flavonoids and isoflavonoids on chloride current in epithelial cells. FIG. 13A is a graph showing the stimulation of transepithelial chloride currents by reservatrol (100 μM), flavanone (100 μM), flavone (200 μM), apigenin (20 μM), apigenin 7-O-neohesperidoside (30 μM), kaempferol (20 μM), fisetin (100 μM), quercetin (30 μM), rutin (30 μM), genistein (30 μM), daidzein (50 μM), biochanin A (100 μM) and prunetin (100 μM) in Calu-3 monolayers. Experiments were performed in the presence of 10 μM forskolin. Stimulated currents are plotted relative to forskolin stimulated increase (forskolin stimulated currents are 100%). FIG. 13B is a recording showing the effect of 7,4′-dihydroxyflavone on chloride current in unstimulated tissue. […] Increasing concentrations of 7,4′-dihydroxyflavone (as indicated in μM) were added to mucosal side and dose-dependently stimulated chloride currents. Currents were recorded with a serosal-to-mucosal chloride gradient at 0 mV and pulses were obtained at 2 mV. FIG. 13C is a recording illustrating the effect of trimethoxy-apigenin. […] Increasing concentrations of trimethoxy-apigenin (as indicated in μM) were added to mucosal side and dose-dependently stimulated chloride currents. Experiment was performed on unstimulated tissue. Currents were recorded with a serosal-to-mucosal chloride gradient at 0 mV and pulses were obtained at 2 mV.
Airway epithelial cells were prestimulated with 10 μM forskolin. The percent increase in chloride current was then determined following treatment with a series of polyphenolic compounds. FIG. 13A summarizes the stimulatory effect of these compounds.

Calu-3 airway epithelia = experiment: Short-circuit current (transepithelial Cl secretion) across Calu-3 airway epithelia, Examples 12-13
Method: (§1) Short-circuit current measurement. Calu-3 or CF15 cells were grown as monolayers, mounted in Ussing chambers and short-circuit current (ISC) was recorded as described (Illek, B. & Fischer, H. (1998) Am. J. Physiol. 275, L902-L910). At 20-50 second intervals, transepithelial voltage was clamped from zero to 2 mV and the transepithelial resistance (Rte) was calculated. A serosa-to-mucosa-directed Cl gradient was applied. Serosal Ussing chamber solution contained (in mM): 120 NaCl, 20 NaHCO3, 5 KHCO3, 1.2 NaH2PO4, 5.6 glucose, 2.5 CaCl2, 1.2 MgCl2. In mucosal Ussing chamber solutions, all Cl salts were exchanged for gluconate salts.
Vitamin C activation of CFTR-mediated Cl secretion was studied in Calu-3 cells grown as epithelial monolayers (FIG. 21A). Exposure of the apical membrane to maximal concentrations of L-ascorbic acid stimulated transepithelial Cl currents (ISC) in a sustained fashion to 96±11 μA/cm^2 (n=22). Subsequent addition of forskolin further increased ISC to 141±33 μA/cm^2 (n=9, p=0.029). On average, Cl secretion was stimulated by ascorbate to 68% of the currents elicited by forskolin. The Cl channel blocker diphenylcarboxylate (DPC, 4 mM) was added as a measure for the transcellular Cl current decreasing ISC to 30±4 μA/cm^2. When Cl secretion was first stimulated with forskolin (to 106±23 μA/cm^2, n=4) ascorbate had no significant effect on Ise (at 100 μM: ΔICl=−1.5±3.5 μA/cm^2, n=4, not different from zero, one-sample t test). Half-maximal stimulatory constant averaged 36.5±2.9 μm as determined from transepithelial dose-response experiments.
Furthermore, the response to ascorbate in Na-containing medium was blunted in the presence of phloretin, a known inhibitor of the sodium-dependent vitamin C transporters SVCT1 and SVCT2 (Tsukaguchi, H., Tokui, T., Mackenzie, B., Berger, U. V., Chen, X. Z., Wang, Y., Brubaker, R. F. & Hediger, M. A. (1999) Nature 399, 70-75). […] Molecular expression of SVCT1 and SVCT2 transcripts in Calu-3 cells was verified using RT-PCR and DNA sequencing analysis. For comparison, human ciliated tracheal epithelial cultures (hTE) and a nasal cystic fibrosis airway cell line (CF15) were included. […] The recombinantly expressed SVCT2-EGFP fusion protein was targeted exclusively to the apical membrane pole of CF15 epithelia.

[3] = tested on: wildtype CFTR-corrected CF15 monolayers; experiment: Short-circuit current across wildtype CFTR-corrected CF15 monolayers; conditions: forskolin added on ascorbate-stimulated current
Method: Human airway cell culture. The human submucosal serous gland-like cell line Calu-3, the CF nasal epithelial cell line homozygous for ΔF508 CFTR (CF15) and human tracheal primary cultures (hTE) were cultured as described (Jefferson, D. M., Valentich, J. D., Marini, F. C., Grubman, S. A., Iannuzzi, M. C., Dorkin, H. L., Li, M., Klinger, K. W. & Welsh, M. J. (1990) Am. J. Physiol. 259, L496-L505. Sachs, L. A., Finkbeiner, W. E. & Widdicombe, J. H. (2003) In Vitro Cell Dev. Biol. Anim. 39, 56-62.). Wildtype CFTR-corrected CF15 cells were generated via adenovirus-mediated gene transfer. Growth media were nominally free of ascorbic acid (<10 μm, University Pathology Inc., Salt Lake City, Utah). For transepithelial measurements cells were grown on permeable filter inserts and used after 3 to 10 days.
as §1
The CF15 cell line was used to determine whether ascorbate-stimulated Cl currents were solely mediated by the CFTR Cl conductance. The CF15 cell line is characterized by the absence of functional CFTR in the apical plasma membrane but the presence of other non-CFTR Cl conductances (Jefferson, D. M., Valentich, J. D., Marini, F. C., Grubman, S. A., Iannuzzi, M. C., Dorkin, H. L., Li, M., Klinger, K. W. & Welsh, M. J. (1990) Am. J. Physiol. 259, L496-L505). A concentration of L-ascorbic acid that lay within the upper plateau of the dose response curve (500 μm) was applied and ascorbate-stimulated Cl currents in CF15 vs. wildtype CFTR-corrected CF15 monolayers was compared (FIG. 23A). […] The defective response to L-ascorbic acid was reversed in wildtype CFTR-corrected CF15 epithelia such that ISC responded promptly to L-ascorbic acid (ΔISC=7.5±0.5 μA/cm^2, n=6). The ascorbate-stimulated current was further activated by the cAMP agonist forskolin and total stimulated ISC averaged 12.1±1.1 μA/cm^2 (FIG. 4B). The ascorbate-stimulated Cl current reached 60±15% of the forskolin-stimulated current in CFTR-corrected CF15 monolayers, which was close to the corresponding findings in Calu-3 monolayers (68%, see FIG. 21A). The absence of ascorbate-stimulated Cl currents in CF15 monolayers supports the notion that non-CFTR Cl conductances were not activated by L-ascorbic acid.
In this example, chloride currents stimulated by L-ascorbate or D-ascorbate were measured in CF15 versus. wildtype CFTR-corrected CF15 monolayers. A concentration of L-ascorbate (1 mM) or D-isoascorbate (300 μm) that lay within the upper plateau of the dose-response curve was applied to cells and the resulting chloride currents stimulated in CF15 versus wildtype CFTR-corrected CF15 monolayers were measured (FIG. 25 A-H). All experiments were performed in the presence of the sodium channel blocker amiloride. […]

[4] = dehydroascorbic acid 10, 100 or 300 μM

With `O=c1cc(-c2ccc(O)cc2)oc2cc(O)ccc12` [7,4′-Dihydroxyflavone] the “transepithelial chloride currents in unstimulated tissue” value (from here on “transepithelial chloride currents”) (Calu-3 monolayers [1]; [4]) was “dose-dependently stimulated transepithelial C1 currents”.

With `C[C@@H]1O[C@@H](O[C@H]2[C@H](Oc3cc(O)c4c(=O)cc(-c5ccc(O)cc5)oc4c3)O[C@H](CO)[C@@H](O)[C@@H]2O)[C@H](O)[C@H](O)[C@H]1O` [apigenin 7-O-neohesperidoside] the “chloride currents further stimulated to (forskolin stimulated currents are 100%)” value (Calu-3 monolayers [2]; compound at 30 μM) was 155%.

For `O=c1c(-c2ccc(O)cc2)coc2cc(O)ccc12` [daidzein], the “chloride currents further stimulated to (forskolin stimulated currents are 100%)” value (Calu-3 monolayers [2]; compound at 50 μM) was 162%.

For `O=C1O[C@H](C(O)CO)C(=O)C1=O` (stereo partly drawn) [dehydroascorbic acid, L-threo-2,3-Hexodiulosonic acid γ-lactone], the “transepithelial chloride currents” value (Calu-3 monolayers [1]; [4]) was “effectively stimulated transepithelial chloride currents” and the “stimulated Cl currents returned to baseline after” value (Calu-3 monolayers [1]; [4]) was 5 to 15 min.

With `O=C1CC(c2ccccc2)Oc2ccccc21` (stereo not drawn) [flavanone] the “chloride currents further stimulated to (forskolin stimulated currents are 100%)” value (Calu-3 monolayers [2]; compound at 100 μM) was 140%.

For `O=c1cc(-c2ccccc2)oc2ccccc12` [flavone], the “chloride currents further stimulated to (forskolin stimulated currents are 100%)” value (Calu-3 monolayers [2]; compound at 200 μM) was 128%.

`C=C[C@@]1(C)CC(=O)[C@]2(O)[C@@]3(C)[C@@H](O)CCC(C)(C)[C@@H]3[C@H](O)[C@H](OC(C)=O)[C@@]2(C)O1` [forskolin, reference compound] was tested, and the “Cl secretion first stimulated with forskolin to” value (Calu-3 airway epithelia; forskolin first, n=4) was 106±23 μA/cm^2, the “ISC further increased to” value (Calu-3 airway epithelia; subsequent addition of forskolin after L-ascorbic acid, n=9) was 141±33 μA/cm^2 and the “total stimulated ISC” value [3] was 12.1±1.1 μA/cm^2.

`O=C(CCc1ccc(O)cc1)c1c(O)cc(O)cc1O` [phloretin, reference compound] was tested, and the “response to ascorbate in presence of SVCT inhibitor” value (Calu-3 airway epithelia; Na-containing medium, pre-treatment with 200 μM phloretin) was “blunted”.

In the case of `COc1cc(O)c2c(=O)c(-c3ccc(O)cc3)coc2c1` [prunetin], the “chloride currents further stimulated to (forskolin stimulated currents are 100%)” value (Calu-3 monolayers [2]; compound at 100 μM) is reported as 161%.

In the case of `Oc1ccc(/C=C/c2cc(O)cc(O)c2)cc1` [reservatrol, trans-3,5,4′-trihydroxystilbene], the “transepithelial chloride currents” value (Calu-3 monolayers [1]; [4]) is reported as “dose-dependently stimulated transepithelial chloride currents” and the “chloride currents further stimulated to (forskolin stimulated currents are 100%)” value (Calu-3 monolayers [2]; compound at 100 μM) is reported as 135%.

`C[C@@H]1O[C@@H](OC[C@H]2O[C@@H](Oc3c(-c4ccc(O)c(O)c4)oc4cc(O)cc(O)c4c3=O)[C@H](O)[C@@H](O)[C@@H]2O)[C@H](O)[C@H](O)[C@H]1O` [rutin] was tested, and the “chloride currents further stimulated to (forskolin stimulated currents are 100%)” value (Calu-3 monolayers [2]; compound at 30 μM) was 149%.

`COc1ccc(-c2cc(=O)c3c(OC)cc(OC)cc3o2)cc1` [trimethoxy-apigenin] was tested, and the “transepithelial chloride currents” value (Calu-3 monolayers [1]; [4]) was “dose-dependently stimulated transepithelial C1 currents” and the EC50 (Calu-3 monolayers [1]; unstimulated tissue, mucosal addition, kinetic analysis, read-out: estimated half maximal stimulatory dose) was 11.7 µM.

For fisetin, the “chloride currents further stimulated to (forskolin stimulated currents are 100%)” value (Calu-3 monolayers [2]; compound at 100 μM) was 108%.
